Test results reported in PubChem BioAssay AID248 (DTP/NCI, 2004).
Several values for one entry are separate records, joined by “and”; a condition that tells them apart may be missing. Equal values may be shown once. Inconclusive results and toxic doses are left out. Rule as the data show it: active = T/C of 150% or more; inactive = T/C below 125%.

System: L1210 leukemia ip in BDF1 mice, survival T/C
Assay: NCI In Vivo Anticancer Drug Screen. Data for tumor model L1210 Leukemia (intraperitoneal) in B6D2F1 (BDF1) mice
Conditions: endpoint: mean survival time, higher = longer survival
Method in brief: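 Tumor was transplanted into mice, which were then dosed with test compound or vehicle alone. Survival was recorded for each group, and the treated figure was expressed relative to the control figure.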

[1] = dose: 100.0 mg/kg/injection, schedule: Q01DX009 (ip), vehicle: Klucel (hydroxypropylcellulose) (HPC)
[2] = dose: 100.0 mg/kg/injection, schedule: Q04DX003 (ip), vehicle: Klucel (hydroxypropylcellulose) (HPC)
[3] = dose: 200.0 mg/kg/injection, schedule: Q01DX009 (ip), vehicle: Klucel (hydroxypropylcellulose) (HPC)
[4] = dose: 200.0 mg/kg/injection, schedule: Q04DX003 (ip), vehicle: Klucel (hydroxypropylcellulose) (HPC)
[5] = dose: 400.0 mg/kg/injection, schedule: Q01DX009 (ip), vehicle: Klucel (hydroxypropylcellulose) (HPC)
[6] = dose: 400.0 mg/kg/injection, schedule: Q04DX003 (ip), vehicle: Klucel (hydroxypropylcellulose) (HPC)
[7] = dose: 50.0 mg/kg/injection, schedule: Q04DX003 (ip), vehicle: saline with Tween-80
[8] = dose: 100.0 mg/kg/injection, schedule: Q04DX003 (ip), vehicle: saline with Tween-80
[9] = dose: 200.0 mg/kg/injection, schedule: Q04DX003 (ip), vehicle: saline with Tween-80
[10] = dose: 400.0 mg/kg/injection, schedule: Q04DX003 (ip), vehicle: saline with Tween-80
[11] = dose: 3.12 mg/kg/injection, schedule: Q04DX003 (ip), vehicle: saline
[12] = dose: 6.25 mg/kg/injection, schedule: Q04DX003 (ip), vehicle: saline
[13] = dose: 12.5 mg/kg/injection, schedule: Q04DX003 (ip), vehicle: saline
[14] = dose: 100.0 mg/kg/injection, schedule: Q04DX002 (ip), vehicle: Klucel (hydroxypropylcellulose) (HPC)
[15] = dose: 200.0 mg/kg/injection, schedule: Q04DX002 (ip), vehicle: Klucel (hydroxypropylcellulose) (HPC)
[16] = dose: 50.0 mg/kg/injection, schedule: Q01DX009 (ip), vehicle: Klucel (hydroxypropylcellulose) (HPC)
[17] = dose: 100.0 mg/kg/injection, schedule: Q04DX003 (ip), vehicle: saline
[18] = dose: 200.0 mg/kg/injection, schedule: Q04DX003 (ip), vehicle: saline
[19] = dose: 400.0 mg/kg/injection, schedule: Q04DX003 (ip), vehicle: saline

Measured: T/C

O=C(Nc1ccc(C(=O)O)cc1)Nc1cccc(C(F)(F)F)c1
inactive: dose: 100.0 mg/kg/injection, schedule: Q01DX009 (ip), vehicle: saline with Tween-80 93 % of control | dose: 200.0 mg/kg/injection, schedule: Q01DX009 (ip), vehicle: saline with Tween-80 87 % of control

Cc1cccc(NS(=O)(=O)c2ccc(Cl)cc2)c1C
inactive: [1] 109 % of control | [2] 96 % of control | [3] 105 % of control | [4] 94 % of control | [5] 94 % of control | [6] 103 % of control

CCOC(=O)C(Cc1ccc(Cl)c(Cl)c1)(NC(C)=O)C(=O)OCC
inactive: [7] 102 % of control | [8] 94 % of control | [9] 96 % of control

OC(CC(CC(O)(C(F)(F)F)C(F)(F)F)=NNc1ccccc1)(C(F)(F)F)C(F)(F)F
inactive: dose: 25.0 mg/kg/injection, schedule: Q04DX003 (ip), vehicle: saline with Tween-80 101 % of control | [7] 101 % of control | [8] 93 % of control and 90 % of control

COC(=O)C(I)C(OC)c1ccccc1 (stereo not given)
inactive: [8] 98 % of control | [9] 96 % of control | [10] 95 % of control

CC(=O)NC1=C(Nc2ccc(-c3ccc(NC4=C(NC(C)=O)C(=O)c5ccccc5C4=O)cc3)cc2)C(=O)c2ccccc2C1=O
inactive: [11] 96 % of control | dose: 4.5 mg/kg/injection, schedule: Q01DX009 (ip), vehicle: saline 101 % of control | [12] 98 % of control | dose: 9.0 mg/kg/injection, schedule: Q01DX009 (ip), vehicle: saline 101 % of control | dose: 12.5 mg/kg/injection, schedule: Q01DX001 (ip), vehicle: saline 95 % of control | [13] 98 % of control | dose: 18.0 mg/kg/injection, schedule: Q04DX003 (ip), vehicle: saline 87 % of control

NC(N)=N/N=C/c1cccc(F)c1
inactive: dose: 15.0 mg/kg/injection, schedule: Q01DX Z (ip), vehicle: saline 111 % of control | dose: 15.0 mg/kg/injection, schedule: Q01DX Z (oral), vehicle: saline 87 % of control | dose: 30.0 mg/kg/injection, schedule: Q01DX Z (ip), vehicle: saline 90 % of control | dose: 30.0 mg/kg/injection, schedule: Q01DX Z (oral), vehicle: saline 90 % of control

CCCCNc1nc2ccccc2[nH]1
inactive: dose: 5.0 mg/kg/injection, schedule: Q01DX009 (ip), vehicle: acetone 98 % of control | dose: 10.0 mg/kg/injection, schedule: Q01DX001 (ip), vehicle: saline 103 % of control | dose: 10.0 mg/kg/injection, schedule: Q01DX009 (ip), vehicle: acetone 98 % of control | dose: 20.0 mg/kg/injection, schedule: Q01DX001 (ip), vehicle: saline 101 % of control | dose: 20.0 mg/kg/injection, schedule: Q01DX009 (ip), vehicle: acetone 110 % of control | dose: 40.0 mg/kg/injection, schedule: Q01DX001 (ip), vehicle: saline 101 % of control

O=c1o[nH]c(-c2ccccc2)c1-c1ccccc1
inactive: dose: 1.56 mg/kg/injection, schedule: Q04DX003 (ip), vehicle: saline 98 % of control | [11] 102 % of control | [12] 102 % of control | [13] 94 % of control | [9] 93 % of control

CCCCOC(=O)c1ccc(NC(=O)Nc2cc([N+](=O)[O-])ccc2F)cc1
inactive: [14] 93 % of control | [15] 104 % of control | dose: 400.0 mg/kg/injection, schedule: Q04DX002 (ip), vehicle: Klucel (hydroxypropylcellulose) (HPC) 93 % of control

Cc1ccc(S(=O)(=O)N2CCCC2CO)cc1 (stereo not given)
inactive: [16] 97 % of control | [1] 101 % of control | [3] 101 % of control

CN(C)c1ccc2c(c1)Cc1cc(NC(=O)/C=C/C(=O)O)ccc1-2
inactive: [17] 112 % of control | [18] 93 % of control | [19] 91 % of control

CCC[As](=O)(O)c1ccc(Cl)cc1
inactive: dose: 1.56 mg/kg/injection, schedule: Q01DX001 (ip), vehicle: Klucel (hydroxypropylcellulose) (HPC) 100 % of control | dose: 3.13 mg/kg/injection, schedule: Q01DX001 (ip), vehicle: Klucel (hydroxypropylcellulose) (HPC) 91 % of control | dose: 6.25 mg/kg/injection, schedule: Q01DX001 (ip), vehicle: Klucel (hydroxypropylcellulose) (HPC) 98 % of control | dose: 12.5 mg/kg/injection, schedule: Q01DX001 (ip), vehicle: Klucel (hydroxypropylcellulose) (HPC) 109 % of control | dose: 25.0 mg/kg/injection, schedule: Q01DX001 (ip), vehicle: Klucel (hydroxypropylcellulose) (HPC) 92 % of control

ClC(Cl)(Cl)C1OCOC(C(Cl)(Cl)Cl)OCO1 (stereo not given)
inactive: [1] 94 % of control | [2] 98 % of control | [3] 93 % of control | [4] 98 % of control | [5] 94 % of control | [6] 102 % of control

O=C1CCCN1C1=CC2=C(CCc3ccccc32)S(=O)(=O)O1
inactive: dose: 100.0 mg/kg/injection, schedule: Q01DX009 (ip), vehicle: saline 90 % of control | [17] 100 % of control | dose: 200.0 mg/kg/injection, schedule: Q01DX009 (ip), vehicle: saline 90 % of control | [18] 94 % of control | dose: 400.0 mg/kg/injection, schedule: Q01DX009 (ip), vehicle: saline 95 % of control | [19] 108 % of control

CCCCCCCCC(CCCCCCCC)CC1CCC2CCCC21 (stereo not given)
inactive: dose: 75.0 mg/kg/injection, schedule: Q01DX001 (ip), vehicle: saline with Tween-80 93 % of control | dose: 150.0 mg/kg/injection, schedule: Q01DX001 (ip), vehicle: saline with Tween-80 90 % of control | dose: 300.0 mg/kg/injection, schedule: Q01DX001 (ip), vehicle: saline with Tween-80 90 % of control

COc1ccc(CN2CCCN(Cc3ccc(OC)cc3)C2c2cc(I)cc(I)c2O)cc1
inactive: dose: 100.0 mg/kg/injection, schedule: Q01DX001 (ip), vehicle: acetone 96 % of control | dose: 200.0 mg/kg/injection, schedule: Q01DX001 (ip), vehicle: acetone 96 % of control | dose: 400.0 mg/kg/injection, schedule: Q01DX001 (ip), vehicle: acetone 94 % of control

NS(=O)(=O)N1CCCCC1
inactive: dose: 9.5 mg/kg/injection, schedule: Q01DX001 (ip), vehicle: saline 104 % of control | dose: 19.0 mg/kg/injection, schedule: Q01DX001 (ip), vehicle: saline 104 % of control | dose: 38.0 mg/kg/injection, schedule: Q01DX001 (ip), vehicle: saline 95 % of control

CC1CC(NC(=S)N(C)C)CC(C)(C)C1 (stereo not given)
inactive: [16] 92 % of control | [1] 100 % of control | [3] 102 % of control

O=c1cc(COc2ccccc2Cl)[nH]c(=O)[nH]1
inactive: [8] 95 % of control | [9] 95 % of control | [10] 95 % of control

O=[N+]([O-])c1ccc(I)c(F)c1
inactive: [2] 100 % of control | [4] 100 % of control | [6] 104 % of control

Nc1csc2ncccc12
inactive: dose: 100.0 mg/kg/injection, schedule: Q01DX001 (ip), vehicle: Klucel (hydroxypropylcellulose) (HPC) 112 % of control | dose: 200.0 mg/kg/injection, schedule: Q01DX001 (ip), vehicle: Klucel (hydroxypropylcellulose) (HPC) 105 % of control | dose: 400.0 mg/kg/injection, schedule: Q01DX001 (ip), vehicle: Klucel (hydroxypropylcellulose) (HPC) 114 % of control

COc1ccc(C(C)(O)c2cc3ccccc3n2S(=O)(=O)c2ccccc2)cc1 (stereo not given)
inactive: dose: 50.0 mg/kg/injection, schedule: Q04DX002 (ip), vehicle: Klucel (hydroxypropylcellulose) (HPC) 102 % of control | [14] 95 % of control | [15] 95 % of control

CCOC(=O)c1ccc(N=Cc2ccccc2O)cc1
inactive: [16] 98 % of control | dose: 75.0 mg/kg/injection, schedule: Q01DX001 (ip), vehicle: Klucel (hydroxypropylcellulose) (HPC) 88 % of control | [1] 89 % of control | dose: 150.0 mg/kg/injection, schedule: Q01DX001 (ip), vehicle: Klucel (hydroxypropylcellulose) (HPC) 105 % of control | [3] 106 % of control | dose: 300.0 mg/kg/injection, schedule: Q01DX001 (ip), vehicle: Klucel (hydroxypropylcellulose) (HPC) 88 % of control
